What was measured:
[1] = TLC Rf as a measure of relative lipophilicity; format: physicochemical; conditions: silica gel TLC Al foils
Procedure: Measurement of the melting points (m.p.) of the obtained compounds was performed with the Büchi M560 melting point device (BÜCHI Labortechnik AG, CH-9230 Flawil/SG, Flawil, Switzerland) and was uncorrected. The ESI-MS (electrospray ionization mass spectroscopy) spectra were recorded with the compactTM Bruker Daltonics Electrospray Ionization Quadrupole Time-of-Flight (ESI-Q-TOF) spectrometer (Bruker Daltonics GmbH, Bremen, Germany). The ESI-MS measurements for new compounds were performed in both positive- and negative-ion mode in LC-MS-grade using LC-MS grade methanol as a solvent. ESI-MS spectral analysis and the simulation of the theoretical monoisotopic mass of detected ions were performed using Bruker Compass Data Analysis 4.2 software (Bruker Daltonics GmbH, Bremen, Germany). All ^1H and ^13C-NMR spectra were recorded on the following instruments: Bruker NMR AVANCE III™ 600 MHz spectrometer with Ascend™ technology magnet with a quadruple resonance NMR ‘inverse’ cryoprobe (Bruker Corporation, Billerica, MA, USA) and/or Bruker ARX-300 (300 MHz) spectrometer (Bruker Analytische Messtechnik GmbH, Rheinstetten, Germany). The NMR measurements of samples of the compounds were carried out at room temperature (20–25 °C) using 5 mm tubes in deuterated acetone-d6. NMR chemical shifts were referenced to the solvent signal, i.e., for ^1H-NMR: δ (quintet of residual acetone-d6) = 2.05 ppm and for ^13C-NMR: δ (septet of acetone-d6) = 29.84 ppm. The Nicolet iS50 FT-IR spectrophotometer (Thermo Fisher Scientific Inc., Waltham, MA, USA) was used to record the Attenuated Total Reflectance IR (ATR-FT-IR) spectra (at MIR range 4000–450 cm^−1). Recording of spectra was performed on the diamond crystal surface (32 scans, resolution: 1 cm^−1, measurement temperature: 20–25 °C) with ATR intensity correction in the Laboratory of Elemental Analysis and Structural Research, Faculty of Pharmacy, Wroclaw Medical University. A Fourier transform, Bruker VERTEX 70V vacuum spectrometer equipped with an air-cooled DTGS detector was used to obtain the Far-IR (far-infrared) spectra (below 500 cm^−1) of the Pt(II) complexes. The spectra measurements were conducted with the ATR accessory, such as a diamond ATR crystal, in the resolution of 1 cm^−1 with 64 scans in the Laboratory of Vibrational Spectroscopy of the Faculty of Chemistry at Wrocław University of Science and Technology. No ATR intensity correction was applied to Far-IR spectra. Omnic 9.3.30 and Omnic Specta 2.0 software (Thermo Fisher Scientific Inc.) was used to process and analyze spectra. A double beam U-2800 Spectrophotometer (Hitachi—Science & Technology, Tokyo, Japan) was used to record UV spectra of Pt-complexes (C1 and C2) and reaction rate measurements of the GSH complexes. Dioxane solutions of complexes were used in the following concentrations: c = 2 × 10^−5 M and 3 × 10^−5 M, respectively, for C1 and C2. Measurement of UV spectra was conducted in quartz cuvettes (path length = 10.0 mm) in the range 190–400 nm (sampling interval 1 nm, scan speed 200 nm/min). All UV experiments were performed in the Laboratory of Elemental Analysis and Structural Research, Faculty of Pharmacy, Wroclaw Medical University. Baselines were corrected with pure dioxane as the reference solvent. Thin-layer chromatography (TLC) was used to monitor the progress of the reaction course and determine the purity of the synthesized compounds. Silica gel on TLC Al foils with fluorescent indicator 254 nm (Sigma-Aldrich, Merck Group, Darmstadt, Germany) was used as the stationary phase and chloroform–acetone mixtures (volume ratios 9:1, 7:3, and 1:1) as the eluent. Detection of Pt(II) compounds in the chromatograms was performed using a 0.5% acetone solution of rubeanic acid (dithiooxamide), and organic impurities were detected by observing the plates under UV light at 250 nm. […]

[2] = Reactivity with L-glutathione (GSH), UV photometry at 260 nm; format: in vitro ADME; conditions: for Half-time, t1/2 of reaction with GSH: 2 mM GSH, 10 mmol/L NaCl, 10 mmol/L Tris x HCl pH 7.4, 37 °C, UV 260 nm
Description: Deactivation of platinum anticancer drugs occurs in the organism at both systemic and intracellular levels. After intravenous administration, these drugs undergo a series of metabolic processes, and the concentration of their active forms can be reduced by various mechanisms. At the systemic level, the first step in deactivation is plasma protein binding: Platinum drugs rapidly bind to plasma proteins (over 90%), especially albumin [32]. […] At the cellular level, platinum drugs are neutralized by binding to intracellular proteins and peptides such as glutathione and metallothionein [33]. Binding to peptide and protein thiol and thioether moieties, which are the primary binding sites for such reactions, prevents the drug from reaching DNA and may be responsible for its nephrotoxicity. As in previous studies, we assessed the susceptibility of the tested compounds to this type of inactivation in the cancer tissues by measuring the half-life of the compound in an aqueous solution containing a physiological concentration of the reduced form of glutathione (GSH) using UV photometry at a wavelength of 260 nm similarly as in Hagrman et al.. Using the same methodology allowed us to directly compare the GHS reactivity of nitroisothiazole compounds with their pyrazole and isoxazole analogues. As a control, the UV spectra of complexes C1 and C2 in dioxane were recorded to check whether there was excessive absorption at a wavelength of 260 nm, which could interfere with the measurement of the reaction of the complexes with glutathione (visualization of the UV spectra can be found in the Supplementary Materials, Figures S46 and S47).
The experiment was conducted in a similar manner to that described in previous publications. First, 30 μL of 60 mM solution of the appropriate complex (cis C1, trans C2, trans C3 and trans C4) in purified and anhydrous distilled dioxane was mixed with 3 mL of a 2 mM solution of reduced L-glutathione (GSH) in an argon-saturated medium containing 10 mmol/L NaCl and 10 mmol/L Tris x HCl buffer, pH 7.4, to achieve a final concentration of 6 µM of the tested complexes. The measurement was carried out at 37 °C. The progress of the reaction was monitored by UV absorption spectrometry at a wavelength of 260 nm. Dioxane was used to dissolve the tested Pt complexes due to the lack of UV absorption of this solvent at the used wavelength. The GSH solution was saturated with argon to remove oxygen and thus prevent oxidation of GSH with the formation of S-S bonds, which would interfere with the measurement results.

Compound | Rf, Eluent: Chlorofom:Acetone Ratio 1:1 Vol. [1] | Rf, Eluent: Chlorofom:Acetone Ratio 9:1 Vol. [1] | Half-time, t1/2 of reaction with GSH [2] | reaction with GSH, times faster than oxaliplatin ([2]; from half-times of Table 5) | Half-time, t1/2 of reaction with GSH ([2]; listed as trans-complex C3) [min] | reaction with GSH, times faster than transplatin ([2]; from half-times of Table 5) [times] | Half-time, t1/2 of reaction with GSH ([2]; listed as cis-complex C1) [min] | reaction with GSH, times faster than cisplatin ([2]; from half-times of Table 5)
Cc1nscc1[N+](=O)[O-].Cc1nscc1[N+](=O)[O-].[Cl][Pt][Cl] [C2, trans-Dichlorobis(3-methyl-4-nitroisothiazole)platinum(II)] | 0.833 | 0.355 | ~29 min | about 1.5 times | – | – | – | –
COC(=O)c1snc(C)c1[N+](=O)[O-].Cc1nscc1[N+](=O)[O-].[Cl][Pt][Cl] [C3, trans-Dichloro-3-methyl-4-nitroisothiazole 3-Methyl-4-nitro-5-(methoxycarbonyl)isothiazole Platinum(II)] | 0.845 | 0.645 | about 20 s | – | 0.333 | 12 | – | –
COC(=O)c1snc(C)c1[N+](=O)[O-].COC(=O)c1snc(C)c1[N+](=O)[O-].[Cl][Pt][Cl] [C4, trans-Dichlorobis(3-methyl-4-nitro-5-(methoxycarbonyl)isothiazole)platinum(II)] | 0.863 | 0.828 | ~0.167 min | – | – | 24 | – | –
Dichlorobis(3-methyl-4-nitroisothiazole)platinum(II) [C1] | 0.726 | 0.054 | about 16 min | – | – | – | 16 | approximately three
